Like-named read-outs stand apart in the source and are kept apart here.

The conditions of data set [1]: bulk (non-pharmaceutical grade) substance, purity above 95%, Cayman leaflet; cited from earlier work.
For data set [2] the following is noted: at 25° C. in water; cited from earlier work.
For data set [3] the following is noted: 250 mg/mL in DMSO, relative to week 0. How it is done:
A 250 mg/mL solution of azacitidine (TEVA Sicor) in DMSO (Merck; Ph. Eur. grade quality) with a water content of less than 0.1 wt.-% was prepared and filled into (moisture proof) vials, which were subsequently sealed using rubber stoppers. […] The amount of azacitidine was analyzed using high performance liquid chromatography (HPLC) and comparing the integral of the azacitidine peak with the integral of a freshly prepared standard solution containing a predetermined amount of azacitidine.
HPLC measurements were carried out using an Agilent 1200 system (or equivalent). For detection, a UV detector (235 nm) was used. A YMC Hydrosphere C18 (250 mm*4.6 mm*[…]) column and a flow rate of 1.0 mL/min and a gradient of aq. pH 7 buffer solution (containing disodium hydrogen phosphate, orthophosphoric acid and ammonium formate)/acetonitrile from 100:0 to 40:60 were employed.

For `Nc1ncn([C@H]2C[C@H](O)[C@@H](CO)O2)c(=O)n1` [decitabine, 5-aza-2′-deoxycytidine], the “solubility in bulk DMSO” value in data set [1] is “approximately 30 mg/mL”.

`Nc1ncn([C@@H]2O[C@H](CO)[C@@H](O)[C@H]2O)c(=O)n1` [azacitidine, 5-azacytidine]: the “solubility in bulk DMSO” value in data set [1] was “approximately 30 mg/mL”. Further, in data set [2], the “solubility of azacitidine in water” value is 13.4 mg/mL. Also, the “% of azacitidine at 25° C.” value in data set [3] (water <0.1 wt.-%, day 0) was 100%; in data set [3] (day 7), 100%; in data set [3] (day 14) it was 100%; in data set [3] (day 21), 100%; in data set [3] (day 28), 100%; in data set [3] (day 56), 100%. In addition, the “% of azacitidine at 25° C.” value in data set [3] (day 98) and in data set [3] (day 182) was 100% throughout. The “% of azacitidine at 40° C.” value is on record as 100% in data set [3] (water <0.1 wt.-%, day 0); 100% in data set [3] (day 7); 100% in data set [3] (day 14); 100% in data set [3] (day 21); 100% in data set [3] (day 28); 99% in data set [3] (day 56). In addition, the “% of azacitidine at 40° C.” value in data set [3] (day 98) came to 96%; in data set [3] (day 182), 94%.
